For one experiment, the species on record is Mus musculus. Kind of experiment: Blood glucose lowering activity in hyperglycemic kk mice. In kind it is functional. Also on record: concentration or dose not given beside the values.
In experiment [1] the target is T1, Peroxisome proliferator-activated receptor gamma (Homo sapiens, UniProt P37231).
T1 sequence (P37231 whole entry): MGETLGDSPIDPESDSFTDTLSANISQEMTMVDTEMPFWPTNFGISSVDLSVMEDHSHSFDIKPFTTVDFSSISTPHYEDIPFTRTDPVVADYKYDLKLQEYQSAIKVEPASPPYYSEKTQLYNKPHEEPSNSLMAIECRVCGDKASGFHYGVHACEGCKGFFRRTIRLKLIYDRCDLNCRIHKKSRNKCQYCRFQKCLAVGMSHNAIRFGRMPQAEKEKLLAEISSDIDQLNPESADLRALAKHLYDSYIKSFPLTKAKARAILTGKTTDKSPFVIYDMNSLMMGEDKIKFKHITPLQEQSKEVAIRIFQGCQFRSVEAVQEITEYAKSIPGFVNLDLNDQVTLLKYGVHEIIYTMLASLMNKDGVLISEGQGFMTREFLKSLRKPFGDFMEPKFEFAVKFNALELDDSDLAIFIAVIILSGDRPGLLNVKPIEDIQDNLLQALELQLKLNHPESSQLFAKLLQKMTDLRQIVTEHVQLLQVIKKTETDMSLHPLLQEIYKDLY
Description: Peroxisome proliferator activated receptor gamma agonistic activity in HepG2 cells.

Where only a bound is given, the exact number is not on record here.

For orientation: EC50 means the concentration at which the effect is half-maximal. As for `CC/C(=N\OCCOc1ccc(CC2SC(=O)NC2=O)cc1)c1ccc(-c2ccccc2)cc1` (stereo not drawn), the Change in the experiment filed under Mus musculus was 67%. Further, the EC50 in experiment [1] came to 1600 nM. `C/C(=N\OCCOc1ccc(CC2SC(=O)NC2=O)cc1)c1ccc(-c2ccncc2)cc1` (stereo not drawn) had a Change in the experiment filed under Mus musculus of 44%. This molecule also had an EC50 in experiment [1] of 1600 nM. Taken in the same sequence, the figures for `CCC/C(=N\OCCOc1ccc(CC2SC(=O)NC2=O)cc1)c1ccc(-c2ccccc2)cc1` (stereo not drawn) were 29% and above 100000 nM. In the case of `C/C(=N\OCCOc1ccc(CC2SC(=O)NC2=O)cc1)c1ccccc1-c1ccccc1` (stereo not drawn), the Change in the experiment filed under Mus musculus was found to be 23%. The EC50 in experiment [1] is above 100000 nM. In the experiment filed under Mus musculus, `C/C(=N\OCCOc1ccc(CC2SC(=O)NC2=O)cc1)c1ccc(-c2ccccc2)nc1` (stereo not drawn) registered a Change of 58%. `C/C(=N\OCCOc1ccc(CC2SC(=O)NC2=O)cc1)c1ccc(-c2ccccc2)cn1` (stereo not drawn): in the experiment listed under Mus musculus, the Change is recorded as 61%. It took 1100 nM to reach a half-maximal effect in experiment [1] (EC50).

`C/C(=N\OCCCOc1ccc(CC2SC(=O)NC2=O)cc1)c1ccc(-c2ccccc2)cc1` (stereo not drawn) had a Change in the experiment listed under Mus musculus of 20%. This molecule displayed an EC50 in experiment [1] above 100000 nM. The corresponding values for `C/C(=N\OCCOc1ccc(CC2SC(=O)NC2=O)cc1)c1ccc(-c2ccccc2)cc1` (stereo not drawn) are 67% and 400 nM.

For `C/C(=N\OCCOc1ccc(CC2SC(=O)NC2=O)cc1)c1ccccn1` (stereo not drawn), the Change in the experiment filed under Mus musculus is listed as 67%. The same molecule returned a concentration for a half-maximal effect (EC50) in experiment [1] of 2800 nM. Taken in the same sequence, the figures for `C/C(=N\OCCOc1ccc(CC2SC(=O)NC2=O)cc1)c1ccncc1` (stereo not drawn) were 48% and 7900 nM. In the case of `C/C(=N\OCCOc1ccc(CC2SC(=O)NC2=O)cc1)c1cccc(-c2ccccc2)c1` (stereo not drawn), the Change in the experiment filed under Mus musculus came to 42%. This molecule showed an EC50 in experiment [1] of 330 nM.

`C/C(=N\OCCOc1ccc(CC2SC(=O)NC2=O)cc1)c1ccc(-c2cccnc2)cc1` (stereo not drawn): in the experiment filed under Mus musculus, the Change worked out at 42%. In experiment [1], this molecule gave a 50% effective concentration (EC50) of 800 nM. Consider `C/C(=N\OCCOc1ccc(CC2SC(=O)NC2=O)cc1)c1ccc(-c2ccccn2)cc1` (stereo not drawn), for which the Change in the experiment listed under Mus musculus was 58%. The molecule further gave an EC50 in experiment [1] of 640 nM. Taken in the same sequence, the figures for `O=C1NC(=O)C(Cc2ccc(OCCO/N=C/c3ccc(-c4ccccc4)cc3)cc2)S1` (stereo not drawn) were 7% and above 100000 nM. In the case of `C/C(=N\OCCOc1ccc(CC2SC(=O)NC2=O)cc1)c1ccccc1` (stereo not drawn), the Change in the experiment filed under Mus musculus is 57%. Also, in experiment [1], the EC50 was 1700 nM.

In the case of `C/C(=N\OCCOc1ccc(CC2SC(=O)NC2=O)cc1)c1cccnc1` (stereo not drawn), in the experiment listed under Mus musculus, the Change is 43%. Also, the EC50 in experiment [1] turned out to be 2800 nM. In turn, `CCc1ccc(CCOc2ccc(CC3SC(=O)NC3=O)cc2)nc1.Cl` (stereo not drawn) [PIOGLITAZONE HYDROCHLORIDE] yielded a Change in the experiment filed under Mus musculus of 42%. Take `CN(CCOc1ccc(CC2SC(=O)NC2=O)cc1)c1ccccn1.O=C(O)/C=C\C(=O)O` (stereo not drawn) [ROSIGLITAZONE MALEATE]: in the experiment filed under Mus musculus, the Change was found to be 66%.

Values taken from ChEMBL document CHEMBL1133395, “Novel oximes having 5-benzyl-2,4-thiazolidinedione as antihyperglycemic agents: synthesis and structure-activity relationship” (Bioorg Med Chem Lett, 2000).
